From BigSolDB 2.1

c1ccc2[nH]cnc2c1
solubility (mole fraction)
Settings	283.15 K	288.15 K	293.15 K	298.15 K	303.15 K	308.15 K	313.15 K	318.15 K	323.15 K
in 1,4-dioxane	0.0138	0.0171	0.0192	0.0215	0.0242	0.0256	0.0292	0.0321	0.0384
in 2-butanone	0.0222	0.0265	0.03	0.0341	0.0393	0.0451	0.0521	0.0582	0.0664
in acetone	0.0192	0.022	0.0256	0.0296	0.0342	0.0398	0.0452	0.0525	0.0576
in acetonitrile	0.00513	0.0063	0.00754	0.00905	0.0107	0.0123	0.0148	0.0166	0.0194
in ethanol	0.0767	0.0837	0.0911	0.0993	0.109	0.118	0.125	0.14	0.152
in ethyl acetate	0.00813	0.0094	0.0108	0.0128	0.0143	0.0167	0.0193	0.0223	0.0259
in isobutanol	0.0747	0.083	0.0947	0.103	0.114	0.125	0.134	0.139	0.156
in isobutyl acetate	0.00698	0.00808	0.00944	0.0103	0.0122	0.0137	0.016	0.0176	0.0197
in isopropanol	0.0636	0.073	0.0785	0.0852	0.0959	0.109	0.117	0.13	0.134
in isopropyl acetate	0.00761	0.00867	0.01	0.0113	0.0132	0.0152	0.0169	0.0191	0.0219
in methanol	0.0888	0.097	0.105	0.113	0.12	0.129	0.143	0.157	0.17
in methyl acetate	0.00781	0.00918	0.0108	0.0126	0.0146	0.0167	0.0198	0.0228	0.0265
in n-butanol	0.0857	0.091	0.105	0.113	0.121	0.13	0.141	0.15	0.161
in n-butyl acetate	0.0064	0.00759	0.00873	0.0102	0.0121	0.0144	0.0166	0.0182	0.0216
in n-pentanol	0.0983	0.105	0.109	0.119	0.129	0.137	0.143	0.155	0.165
in n-propanol	0.0798	0.0896	0.0961	0.107	0.113	0.121	0.137	0.147	0.156
in n-propyl acetate	0.00645	0.0076	0.009	0.0105	0.0127	0.0141	0.0165	0.0189	0.0219
in sec-butanol	0.0881	0.0973	0.105	0.11	0.117	0.127	0.137	0.151	0.162
in water	0.000498	0.000604	0.000739	0.000874	0.000994	0.00115	0.00133	0.00156	0.00184
